Test results: ChEMBL document CHEMBL3392982, “Synthesis and membrane-protective activity of novel derivatives of α-mangostin at the C-4 position” (Bioorg Med Chem Lett, 2015)
Calls of active or inactive are those of the source. No cut-off for these calls is given here.

Tests used:
[1] = test system: Erythrocyte; assay: Inhibition of H2O2-induced oxyhemoglobin oxidation in mouse erythrocytes assessed as ferrylHb/oxyHb ratio level at 10 uM pre-incubated for 30 mins before H2O2 injection and measured 5 hrs post H2O2 injection; assay type: functional; set-up: scale not given: the % may be the effect or the level left
[2] = test system: Erythrocyte; assay: Inhibition of H2O2-induced oxyhemoglobin oxidation in mouse erythrocytes assessed as ferrylHb/oxyHb ratio level at 1 uM pre-incubated for 30 mins before H2O2 injection and measured 5 hrs post H2O2 injection; assay type: functional; set-up: scale not given: the % may be the effect or the level left
[3] = test system: Erythrocyte; assay: Membrane-protective activity in mouse erythrocytes assessed as inhibition of H2O2-induced hemolysis pre-incubated for 30 mins before H2O2 injection and measured 5 hrs post H2O2 injection; assay type: functional, cell-based
[4] = Toxicity in mouse erythrocytes assessed as induction of hemolysis at 10 and 30 uM incubated for 5 hrs; assay type: cell-based; conditions: erythrocyte
[5] = test system: Erythrocyte; assay: Inhibition of H2O2-induced oxyhemoglobin oxidation in mouse erythrocytes assessed as metHb/oxyHb ratio level at 1 uM pre-incubated for 30 mins before H2O2 injection and measured 5 hrs post H2O2 injection; assay type: functional; set-up: scale not given: the % may be the effect or the level left
[6] = test system: Erythrocyte; assay: Inhibition of H2O2-induced oxyhemoglobin oxidation in mouse erythrocytes assessed as metHb/oxyHb ratio level at 30 uM pre-incubated for 30 mins before H2O2 injection and measured 5 hrs post H2O2 injection; assay type: functional; set-up: scale not given: the % may be the effect or the level left
[7] = test system: Erythrocyte; assay: Antioxidant activity in mouse erythrocytes assessed as inhibition of H2O2-induced secondary lipid peroxidation at 1 to 30 uM pre-incubated for 30 mins before H2O2 injection and measured 4 hrs post H2O2 injection by TBARS detection based spectrophotometry; assay type: functional, cell-based
[8] = test system: Erythrocyte; assay: Inhibition of H2O2-induced oxyhemoglobin oxidation in mouse erythrocytes assessed as metHb/oxyHb ratio level at 10 uM pre-incubated for 30 mins before H2O2 injection and measured 5 hrs post H2O2 injection; assay type: functional; set-up: scale not given: the % may be the effect or the level left
[9] = test system: Erythrocyte; assay: Inhibition of H2O2-induced oxyhemoglobin oxidation in mouse erythrocytes assessed as ferrylHb/oxyHb ratio level at 30 uM pre-incubated for 30 mins before H2O2 injection and measured 5 hrs post H2O2 injection; assay type: functional; set-up: scale not given: the % may be the effect or the level left
[10] = Toxicity in H2O2-induced mouse erythrocytes assessed as induction of hemolysis at 30 uM pre-incubated for 30 mins before H2O2 injection and measured 5 hrs post H2O2 injection; assay type: cell-based; conditions: erythrocyte
[11] = test system: Erythrocyte; assay: Membrane-protective activity in mouse erythrocytes assessed as inhibition of H2O2-induced hemolysis at 10 to 30 uM pre-incubated for 30 mins before H2O2 injection and measured 5 hrs post H2O2 injection; assay type: functional, cell-based
[12] = Toxicity in rabbit erythrocytes assessed as induction of cell death at 7.8 to 15.6 uM within 1 hr; assay type: cell-based, Oryctolagus cuniculus, Erythrocyte; conditions: read-out: Activity
[13] = Toxicity in rabbit erythrocytes assessed as induction of hemolysis at 10 uM within 1 hr; assay type: cell-based, Oryctolagus cuniculus, Erythrocyte; conditions: read-out: Activity
[14] = test system: Erythrocyte; assay: Membrane-protective activity in mouse erythrocytes assessed as inhibition of H2O2-induced hemolysis at 1 uM pre-incubated for 30 mins before H2O2 injection and measured 5 hrs post H2O2 injection; assay type: functional, cell-based
[15] = test system: Erythrocyte; assay: Membrane-protective activity in mouse erythrocytes assessed as inhibition of H2O2-induced hemolysis at 30 uM pre-incubated for 30 mins before H2O2 injection and measured 5 hrs post H2O2 injection; assay type: functional, cell-based

In the case of `COc1c(O)cc2oc3c(CN(C)C)c(O)c(CC=C(C)C)c(O)c3c(=O)c2c1CC=C(C)C`, the Activity [1] is reported as 35.5%, the Activity [2] is reported as 67.4% and the Activity [3] is reported as “Dose-dependent effect”. For the same compound, the Activity [4] was “Non-toxic”, the Activity [5] was 65.8% and the Activity [6] was 196.4%. For the same compound, the Activity [7] was “Active”, the Activity [8] was 37.5% and the Activity [9] was 162.3%. The Activity [10] was “Toxic”.

In the case of `COc1c(O)cc2oc3c(CN4CCOCC4)c(O)c(CC=C(C)C)c(O)c3c(=O)c2c1CC=C(C)C`, the Activity [1] is reported as 37.1%, the Activity [2] is reported as 91.8% and the Activity [4] is reported as “Non-toxic”. The Activity [11] was “Active”, the Activity [5] was 112.5% and the Activity [6] was 27.9%. For the same compound, the Activity [7] was “Active”, the Activity [8] was 42.7% and the Activity [9] was 25.2%.

For `COc1c(O)cc2oc3cc(O)c(CC=C(C)C)c(O)c3c(=O)c2c1CC=C(C)C` [MANGOSTIN], the Activity [1] was 39.5%, the Activity [2] was 55.3% and the hemolysis at 1 h, up to 15.6 µM [12] was 10.5%. For the same compound, the Activity [3] was “Dose-dependent effect”, the Activity [4] was “Toxic” and the Activity [5] was 44.7%. For the same compound, the hemolysis at 1 h, 10 µM [13] was 10.1%, the Activity [7] was “Active” and the Activity [8] was 45.5%. For the same compound, the Activity [10] was “Toxic”.

For `COc1c(O)cc2oc3c(Cc4cc([C@H]5C[C@@H]6CC[C@@]5(C)C6(C)C)c(O)c([C@@H]5C[C@H]6CC[C@]5(C)C6(C)C)c4)c(O)c(CC=C(C)C)c(O)c3c(=O)c2c1CC=C(C)C`, the Activity [1] was 70.9%, the Activity [2] was 61.5% and the Activity [4] was “Non-toxic”. The Activity [5] was 60.1%, the Activity [6] was 105.6% and the Activity [14] was “Active”. For the same compound, the Activity [7] was “Active”, the Activity [8] was 77.3% and the Activity [9] was 64.2%.

For `COc1c(O)cc2oc3c(Cc4cc(C(C)(C)C)c(O)c(C(C)(C)C)c4)c(O)c(CC=C(C)C)c(O)c3c(=O)c2c1CC=C(C)C`, the Activity [1] was 53.3%, the Activity [2] was 81% and the Activity [4] was “Non-toxic”. For the same compound, the Activity [5] was 98.4%, the Activity [6] was 35.5% and the Activity [7] was “Active”. The Activity [8] was 63.8%, the Activity [15] was “Active” and the Activity [9] was 22.5%.

With `COc1c(O)cc2oc3c(CN4CCCCC4)c(O)c(CC=C(C)C)c(O)c3c(=O)c2c1CC=C(C)C` the Activity [1] was 32.3%, the Activity [2] was 58% and the Activity [4] was “Non-toxic”. For the same compound, the Activity [11] was “Active”, the Activity [5] was 56.9% and the Activity [6] was 24%. The Activity [7] was “Active”, the Activity [8] was 40.7% and the Activity [9] was 18.5%.
